Experimental data reported in patent publication US12527806B2, “Composition for preventing or treating diabetes mellitus” (SEOUL NATIONAL UNIVERSITY R&DB FOUNDATION, priority 2020, dated 2026).

Test system: MIN-6 cells
Assay: Cytotoxicity: cell viability of MIN-6 cells by AOPI staining and cell counter
Details: 24 hours

SMILES	cell viability (40 μM)	cytotoxicity (cell viability) (up to 20 μM)	cytotoxicity (cell viability) (0.5 mM to 40 mM of each factor)
CN(CC(=O)N(Cc1ccc(C2CCCCC2)cc1)c1ccc(C(=O)O)c(O)c1)S(=O)(=O)c1c(F)c(F)c(F)c(F)c1F [BP-1-102]	about 59%	no cytotoxicity was shown	
N[C@H]1C(O)O[C@H](CO)[C@@H](O)[C@@H]1O (stereo partly shown) [glucosamine]			did not show cytotoxicity
NC(=O)c1cccnc1 [nicotinamide]			did not show cytotoxicity
